Source: patent publication US20220095663A1, “COMPLEX MUSHROOM MYCELIUM COMPOSITION HAVING LIVER FUNCTION-IMPROVING ACTIVITY AND PREPARATION METHOD THEREFOR” (GIUNCHAN CO., LTD., priority 2019, published 2022)

Test: Antioxidation activity by DPPH method
Settings: 50 μg/ml, positive control
Procedure: 7) Antioxidation activity measurement test: The antioxidation activity of each sample was measured by a DPPH method using 1.1-diphenyl-2-picrylhydrazyl. The positive control group was treated with BHT at a concentration of 50 μg/ml.

## Cc1cc(C(C)(C)C)c(O)c(C(C)(C)C)c1 [BHT]
  DPPH inhibition: 10%
